Measured values published in publication PMC5628579, “Potent mechanism-based sirtuin-2-selective inhibition by an in situ-generated occupant of the substrate-binding site, “selectivity pocket” and NAD^+-binding site” (Chemical Science, 2017).
Like-named read-outs stand apart in the source and are kept apart here. Where a SMILES comes first, the peptide text is derived from it. Side-chain parts run from the residue outwards. The star is where a group is joined. Cbz = O=C(OCc1ccccc1)*; Bz = O=C(c1ccccc1)*

How the values were obtained:
[1] = target: T1, SIRT3 (Homo sapiens, UniProt Q9NTG7); assay: Fluor de Lys SIRT3 assay; conditions: for inhibition at 10 µM: read-out: % inhibition at 10 μM SIRT3; for inhibition at 50 µM: read-out: % inhibition at 50 μM SIRT3
T1 sequence (Q9NTG7 1-399): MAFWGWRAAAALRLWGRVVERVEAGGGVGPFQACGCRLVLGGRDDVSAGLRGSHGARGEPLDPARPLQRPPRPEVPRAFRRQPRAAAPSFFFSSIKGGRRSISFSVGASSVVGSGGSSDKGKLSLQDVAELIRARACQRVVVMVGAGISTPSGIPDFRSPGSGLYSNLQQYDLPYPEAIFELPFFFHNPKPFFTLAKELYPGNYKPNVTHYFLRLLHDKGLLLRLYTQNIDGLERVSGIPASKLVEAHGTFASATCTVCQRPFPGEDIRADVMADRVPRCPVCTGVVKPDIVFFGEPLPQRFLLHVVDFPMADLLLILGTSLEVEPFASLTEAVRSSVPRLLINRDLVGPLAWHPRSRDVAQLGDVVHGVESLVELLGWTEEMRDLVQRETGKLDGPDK

[2] = target: T2, SIRT2 (Homo sapiens, UniProt Q8IXJ6); assay: Fluor de Lys SIRT2 assay; conditions: for inhibition at 10 µM: read-out: % inhibition at 10 μM SIRT2; for inhibition at 1 µM: read-out: % inhibition at 1 μM SIRT2
T2 sequence (Q8IXJ6 1-389): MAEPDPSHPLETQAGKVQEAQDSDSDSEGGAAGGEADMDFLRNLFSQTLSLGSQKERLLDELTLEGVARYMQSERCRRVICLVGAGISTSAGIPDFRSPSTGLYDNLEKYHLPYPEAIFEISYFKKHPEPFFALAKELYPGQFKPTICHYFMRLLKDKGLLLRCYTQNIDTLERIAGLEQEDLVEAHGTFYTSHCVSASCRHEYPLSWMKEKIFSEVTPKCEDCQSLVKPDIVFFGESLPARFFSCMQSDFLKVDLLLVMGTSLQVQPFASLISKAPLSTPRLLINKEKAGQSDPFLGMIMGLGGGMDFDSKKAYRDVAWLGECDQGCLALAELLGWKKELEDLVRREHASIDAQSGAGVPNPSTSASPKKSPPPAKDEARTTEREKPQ

[3] = target: T3, SIRT1 (Homo sapiens, UniProt Q96EB6); assay: Fluor de Lys SIRT1 assay; conditions: for inhibition at 10 µM: read-out: % inhibition at 10 μM SIRT1; for inhibition at 50 µM: read-out: % inhibition at 50 μM SIRT1
T3 sequence (Q96EB6 1-747): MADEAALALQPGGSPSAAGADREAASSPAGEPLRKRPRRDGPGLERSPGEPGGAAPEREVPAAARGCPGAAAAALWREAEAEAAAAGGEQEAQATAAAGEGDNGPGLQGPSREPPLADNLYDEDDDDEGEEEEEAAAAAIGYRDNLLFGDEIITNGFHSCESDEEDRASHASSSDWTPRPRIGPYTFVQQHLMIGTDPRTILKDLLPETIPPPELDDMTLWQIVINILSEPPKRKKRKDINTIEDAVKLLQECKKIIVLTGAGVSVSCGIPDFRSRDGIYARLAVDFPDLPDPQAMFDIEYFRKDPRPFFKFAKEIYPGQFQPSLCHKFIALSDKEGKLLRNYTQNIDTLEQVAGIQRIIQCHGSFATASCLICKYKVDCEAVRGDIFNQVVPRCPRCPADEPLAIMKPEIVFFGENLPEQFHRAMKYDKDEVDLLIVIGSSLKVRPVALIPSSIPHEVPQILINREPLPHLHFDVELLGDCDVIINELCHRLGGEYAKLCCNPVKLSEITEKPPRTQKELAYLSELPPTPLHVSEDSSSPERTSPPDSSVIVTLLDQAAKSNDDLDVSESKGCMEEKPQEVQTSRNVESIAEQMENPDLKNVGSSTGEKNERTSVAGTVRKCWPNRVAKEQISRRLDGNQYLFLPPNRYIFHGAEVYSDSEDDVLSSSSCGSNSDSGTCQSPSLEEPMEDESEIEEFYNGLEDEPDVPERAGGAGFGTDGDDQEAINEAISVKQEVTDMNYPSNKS

[4] = target: T4, SIRT5 (Homo sapiens, UniProt Q9NXA8); assay: Fluor de Lys SIRT5 assay; conditions: for inhibition at 10 µM: read-out: % inhibition at 10 μM SIRT5; for inhibition at 50 µM: read-out: % inhibition at 50 μM SIRT5
T4 sequence (Q9NXA8 37-310): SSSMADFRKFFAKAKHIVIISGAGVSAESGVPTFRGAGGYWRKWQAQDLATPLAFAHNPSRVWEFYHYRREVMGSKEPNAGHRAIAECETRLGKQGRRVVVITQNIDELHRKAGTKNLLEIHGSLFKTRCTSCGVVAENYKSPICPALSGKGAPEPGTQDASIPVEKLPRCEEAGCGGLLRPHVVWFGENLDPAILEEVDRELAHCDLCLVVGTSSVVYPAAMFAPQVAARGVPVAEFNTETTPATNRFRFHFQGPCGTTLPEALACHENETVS

[5] = test system: MDA-MB-231 cells; assay: Cell growth assay (AlamarBlue), MDA-MB-231; format: cell-based, human; conditions: Homo sapiens, 72 h of treatment
[6] = target: T1, SIRT3; set-up: purchased Biomol / Enzo Life Sciences (Fluor de Lys kit AK-557) BML-SE270-0500; conditions: cited from earlier work
[7] = target: T3, SIRT1; set-up: purchased Biomol / Enzo Life Sciences (Fluor de Lys kit AK-555) BML-SE239-0100; conditions: cited from earlier work

Row | Compound | inhibition at 10 µM [1] [%] | inhibition at 50 µM [1] [%] | inhibition at 10 µM [2] [%] | inhibition at 10 µM [3] [%] | inhibition at 50 µM [3] [%] | inhibition at 10 µM [4] [%] | inhibition at 50 µM [4] [%] | GI50 [5] [µM] | IC50 [6] [µM] | inhibition at 1 µM [2] [%] | IC50 [7] [µM] | GI50 ([5]; MDA-MB-231, 72 h) [µM] | IC50 [2] [µM] | reduction of the SIRT2 inhibitory activity ([2]; removal of the phenoxyethyl fragment, relative to 26) [%] | SIRT2 inhibition (in words) [2] | inhibition at 50 µM ([2]; read-out: % inhibition at 50 μM SIRT2) [%] | IC50 [1] [µM] | inhibition at 1 µM ([1]; read-out: % inhibition at 1 μM SIRT3) [%] | IC50 [3] [µM] | inhibition at 1 µM ([3]; read-out: % inhibition at 1 μM SIRT1) [%]
1 | CN(C)CCCCC(=O)Nc1ccc(NC(=S)NC(=O)c2ccc(C(C)(C)C)cc2)cc1 [Compound 3, tenovin-6, reference compound] | 0 | 9 | 45 ± 2.5 | 0.9 ± 0.17 | 64 | 0 | 2 | – | – | – | – | – | – | – | – | – | – | – | – | –
2 | Cc1cc(C)nc(SCC(=O)Nc2ncc(Cc3cccc4ccccc34)s2)n1 [Compound 5, SirReal2, reference compound] | 5 ± 0.6 | 1 | 98 ± 3.1 | 3 ± 0.65 | 6 | 3 ± 1.5 | 1 | 9.46 | > 100 | 80 ± 1.5 | > 100 | – | – | – | – | – | – | – | – | –
3 | NC(=O)c1ccccc1Nc1cccc(OCCc2ccccc2)c1 [Compound 6, 3′-phenethyloxy-2-anilinobenzamide, reference compound] | 1 ± 2.6 | 12 | 90 ± 1.5 | 3 ± 3.6 | 14 | 10 ± 2.6 | 12 | – | > 300 | 32 ± 4.1 | > 300 | > 30 | 1.74 ± 0.26 | – | – | – | – | – | – | –
4 | N#C/C(=C\c1ccc(-c2cc(Cl)ccc2Cl)o1)C(=O)Nc1cccc2ncccc12 [Compound 7, AGK2, reference compound] | – | – | 45 ± 2.9 | 0.9 ± 0.62 | 14 | 0 | 3 | – | – | – | – | – | – | – | – | – | – | – | – | –
5 | O=C(Nc1cccc([N+](=O)[O-])c1)c1cccc(S(=O)(=O)N2CCCCCC2)c1 [Compound 8, AK-1, reference compound] | 0 | 0 | 31 ± 0.42 | 6.2 ± 0.85 | 25 | 0 | 0 | – | – | – | – | – | – | – | – | – | – | – | – | –
6 | NC(=O)C1CCCc2c1[nH]c1ccc(Cl)cc21 (stereo not shown) [Compound 9, EX-527, reference compound] | – | – | 79 ± 1.3 | 97 ± 0.13 | – | 0 | 0 | – | – | – | – | > 30 | – | – | – | – | – | – | – | –
7 | NC(=O)CNC(=O)c1ccccc1Nc1cccc(OCCc2ccccc2)c1 [Compound 17] | 10 ± 0.95 | 13 | 85 ± 0.47 | 10 ± 1.9 | 18 | 0 | 4 | – | – | 19 ± 0.63 | – | – | 3.6 ± 0.03 | – | – | – | – | – | – | –
8 | CCCNC(=O)CNC(=O)c1ccccc1Nc1cccc(OCCc2ccccc2)c1 [Compound 18] | 0 | 3 | 81 ± 0.43 | 2 ± 1 | 12 | 0 | 3 | – | – | – | – | – | 4.04 ± 0.65 | – | – | – | – | – | – | –
9 | CCCCCNC(=O)CNC(=O)c1ccccc1Nc1cccc(OCCc2ccccc2)c1 [Compound 19] | 3 ± 3.2 | 2 | 69 ± 2.2 | 4.5 ± 3.4 | 4 | 6 ± 3.2 | 6 | – | – | – | – | – | 6.71 ± 0.42 | – | – | – | – | – | – | –
10 | C[C@H](NC(=O)[C@H](CCCCNC(=O)CNC(=O)c1ccccc1Nc1cccc(OCCc2ccccc2)c1)NC(=O)OCc1ccccc1)C(N)=O [Compound 26] | 14 ± 4.9 | 56 | 99 ± 0.15 | 16 ± 0.1 | 25 | 0 | 6 | – | – | 74 ± 2 | – | 10.8 | 0.37 ± 0.03 | – | – | – | – | – | – | –
11 | C[C@H](NC(=O)[C@H](CCCCNC(=O)CNC(=O)c1ccccc1Nc1ccccc1)NC(=O)OCc1ccccc1)C(N)=O [Compound 27] | 9 ± 2.2 | 16 | 80 ± 0.12 | 24 ± 2.1 | 68 | 0 | 3 | – | – | – | – | – | 1.84 ± 0.21 | ~20 | – | – | – | – | – | –
12 | C[C@H](NC(=O)[C@H](CCCCNC(=O)CNC(=O)c1ccccc1)NC(=O)OCc1ccccc1)C(N)=O [Compound 28] (Cbz-Lys([Gly-Bz])-Ala-NH2) | 1 ± 1.8 | 0 | 8 ± 3.3 | 3.5 ± 1 | 1 | 0 | 0 | – | – | – | – | – | – | – | no SIRT2 inhibition | 18 | – | – | – | –
13 | CCCNC(=S)CNC(=O)c1ccccc1Nc1cccc(OCCc2ccccc2)c1 [Compound 41] | 0 | 0 | 54 ± 1.5 | 0 | 10 | 1 ± 2.2 | 3 | – | – | – | – | – | 8.47 ± 0.3 | – | – | – | – | – | – | –
14 | CCCCCNC(=S)CNC(=O)c1ccccc1Nc1cccc(OCCc2ccccc2)c1 [Compound 42] | 0 | 2 | 40 ± 3.4 | 0 | 11 | 0 | 3 | – | – | – | – | – | 19.3 ± 3.1 | – | – | – | – | – | – | –
15 | CC(=S)NCCCC[C@H](NC(=O)OCc1ccccc1)C(=O)N[C@@H](C)C(N)=O [UKU 10363, reference compound] | 65 ± 0.23 | – | 99 ± 3.2 | 97 ± 0.04 | – | 3 ± 3.9 | 6 | – | – | 56 ± 1.9 | – | – | 0.59 ± 0.13 | – | – | – | 4.39 ± 0.28 | 19 ± 0.78 | 0.18 ± 0.013 | 83 ± 0.4
